Data published in publication PMC9145706 (Molecules, 2022).
Where two headings read alike, the source gives them in different places.

Target: T1, AChE enzyme from electric eel (EeAChE) (type VI) (Electrophorus electricus, UniProt O42275)
T1 construct: purchased Sigma-Aldrich, Steinheim, Germany type VI (catalogue number not given)
Assay: In vitro AChE inhibition assay (modified Ellman method)
Type: biochemical
Method: AChE enzyme from electric eel (EeAChE) (type VI), acetylthiocholine iodide, Ellman reagent, 5,5-dithiobis-2-nitro benzoic acid (DTNB), and Eserine (standard inhibitor) were purchased from Sigma-Aldrich, Steinheim, Germany. AChE inhibitory activity was performed in vitro using a modified spectrophotometric method developed by Ellman et al.. Experiments were carried out in a 96-well microtiter plate using a Multiskan spectrum spectrophotometer. The test compounds were prepared immediately before the experiment as fresh samples. Each compound was dissolved in 200 μL methanol, 150 μL […] phosphate buffer (pH 8.0), and 20 μL AChE enzyme. An aliquot of 10 μL of resulting test solutions was mixed and incubated at 25 °C for 10 min. The sample with 10 μL of solvent (methanol) rather than the test compound served as a negative control. After 10 min, 10 μL DTNB was added to the wells and the reaction was initiated with the addition of 10 μL acetylthiocholine (ATCh). All of the samples were prepared and analyzed in triplicate. The hydrolysis of ATCh was monitored at wavelength 412 nm by measuring the formation of a yellow anion of 5-thio-2-nitrobenzoate due to the reaction of DTNB with thiocholine. The initial rate was measured as the change in optical density/min (OD/min). As the extinct coefficient of the yellow anion is known, the following equation was used to calculate the rate of the enzymatic reaction: (1) Rate (moles/L/min) = change in absorbance/εTNB where εTNB is the molar extinction coefficient value of 5-thio-2-nitrobenzoate = 13.6 × 10^3 at 412 nm.
The following formula was used to calculate the % enzyme inhibition by test compounds:(2) % inhibition = 1−Rate of change in the absorbance of test/Rate of change in the absorbance of cotrol × 100
Chalcone solutions were serially diluted to different concentrations (0.0977–50 µM) and were analyzed in triplicate using the above-described modified Ellman’s method. Finally, IC50 values were determined and statistically analyzed using EZ-Fit Enzyme Kinetic Program (Perrella Scientific Inc., Amherst, MA, USA).

[1] = EeAChE, Ellman method, triplicate, 25 °C, pH 8.0, read-out: IC50 (AChE inhibitory activity)

T1 sequence (O42275 24-633): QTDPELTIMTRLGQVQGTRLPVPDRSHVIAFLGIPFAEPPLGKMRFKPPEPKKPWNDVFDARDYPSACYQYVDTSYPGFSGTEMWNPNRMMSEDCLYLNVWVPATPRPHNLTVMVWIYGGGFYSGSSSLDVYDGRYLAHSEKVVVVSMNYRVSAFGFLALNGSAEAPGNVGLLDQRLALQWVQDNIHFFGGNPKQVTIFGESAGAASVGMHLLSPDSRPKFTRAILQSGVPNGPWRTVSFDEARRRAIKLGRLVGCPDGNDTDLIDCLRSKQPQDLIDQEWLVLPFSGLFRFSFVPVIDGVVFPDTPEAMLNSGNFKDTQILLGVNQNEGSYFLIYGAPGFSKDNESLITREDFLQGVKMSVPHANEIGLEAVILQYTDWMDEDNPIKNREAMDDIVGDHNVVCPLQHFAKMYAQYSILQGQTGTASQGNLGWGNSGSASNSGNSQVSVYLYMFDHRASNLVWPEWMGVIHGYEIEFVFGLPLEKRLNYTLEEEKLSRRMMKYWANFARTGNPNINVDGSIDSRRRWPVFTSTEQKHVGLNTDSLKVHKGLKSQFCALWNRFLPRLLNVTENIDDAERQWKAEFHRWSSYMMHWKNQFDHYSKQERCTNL

Row | SMILES | IC50 [1] [µM] | IC50 [µM]
1 | O=C(/C=C/c1ccccc1)c1ccc(Cl)cc1 [Compound C1, (E)-1-(4-chlorophenyl)-3-phenylprop-2-en-1-one] | 22 ± 2.8 | –
2 | COc1ccc(/C=C/C(=O)c2ccc(Cl)cc2)cc1 [Compound C3, (E)-1-(4-chlorophenyl)-3-(4-methoxyphenyl)prop-2-en-1-one] | – | 32 ± 2.4
3 | CCc1ccc(C(=O)/C=C/c2ccc([N+](=O)[O-])cc2)cc1 [Compound C2, (E)-1-(4-ethylphenyl)-3-(4-nitrophenyl)prop-2-en-1-one] | 31.2 ± 1.8 | –
4 | O=C(/C=C/c1ccc([N+](=O)[O-])cc1)c1ccc(Br)cc1 [Compound C5, (E)-1-(4-bromophenyl)-3-(4-nitrophenyl)prop-2-en-1-one] | 37.6 ± 0.75 | –
